Values of other authors as cited in patent US20230175054A1, “LASH METHODS FOR SINGLE MOLECULE SEQUENCING & TARGET NUCLEIC ACID DETECTION” (SARMAL, INC., priority 2020, published 2023).

What was measured:
[1] = target: T1, Apoaequorin (Aequorea victoria, UniProt P02592); conditions: for λem (nm): luminescence emission with Apoaequorin; for Relative intensity / Relative luminescence capacity / Half-rise time: with Apoaequorin
T1 sequence (P02592 8-196): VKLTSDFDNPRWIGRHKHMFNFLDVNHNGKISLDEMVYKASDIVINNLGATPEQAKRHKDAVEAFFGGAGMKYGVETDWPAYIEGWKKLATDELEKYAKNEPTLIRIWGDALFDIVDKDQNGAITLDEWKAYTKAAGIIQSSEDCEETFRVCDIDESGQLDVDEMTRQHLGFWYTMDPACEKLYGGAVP

[2] = target: T2, Renilla Luciferase (Renilla reniformis, UniProt P27652); conditions: for λem (nm): luminescence emission with Renilla Luciferase; for Initial Intensity (%) / Total Light (%): with Renilla Luciferase
T2 sequence (P27652 1-311): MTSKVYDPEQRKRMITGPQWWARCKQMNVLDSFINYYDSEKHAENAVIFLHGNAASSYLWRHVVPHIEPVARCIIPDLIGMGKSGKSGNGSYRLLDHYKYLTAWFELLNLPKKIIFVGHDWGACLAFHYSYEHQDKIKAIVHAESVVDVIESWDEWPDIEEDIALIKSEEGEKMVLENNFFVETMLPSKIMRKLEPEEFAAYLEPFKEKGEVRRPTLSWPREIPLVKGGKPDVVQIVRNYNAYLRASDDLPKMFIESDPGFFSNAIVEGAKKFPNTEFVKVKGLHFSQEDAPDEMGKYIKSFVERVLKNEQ

Compound | λem (nm) [1] [nm] | Relative intensity [1] | Relative luminescence capacity [1] | Half-rise time [1] [s] | λem (nm) [2] [nm] | Initial Intensity (%) [2] [%] | Total Light (%) [2] [%]
Oc1ccc(-c2cn3c(O)c(Cc4ccccc4)nc3c(CC3CCCC3)n2)cc1 [hcp, Coelenterazine hcp] | 444 | 190 | 0.67 |  |  |  | 
Oc1ccc(Cc2nc3c(CC4CCCC4)nc(-c4ccc(O)cc4)cn3c2O)cc1 [Cp, Coelenterazine cp] | 442 | 15 | 0.95 | 0.15 to 0.3 | 470 | 135 | 23
Oc1ccc(Cc2nc3c(Cc4ccccc4)nc(-c4ccc(O)cc4)cn3c2O)cc1 [Native, Coelenterazine] | 465 | 1.00 | 1.0 | 0.4 to 0.8 |  |  | 
Oc1ccc(-c2cn3c(O)c(Cc4ccc(F)cc4)nc3c(CC3CCCC3)n2)cc1 [fcp, Coelenterazine fcp] | 452 | 135 | 0.57 | 0.4 to 0.8 |  |  | 
Coelenterazine f | 473 | 18 | 0.80 | 0.4 to 0.8 | 473 | 45 | 28
O=c1c(Cc2ccc(I)cc2)nc2c(Cc3ccccc3)[nH]c(-c3ccc(O)cc3)cn1-2 [i, Coelenterazine i] | 476 | 0.03 | 0.70 | 8 |  |  | 
Coelenterazine h | 475 | 10 | 0.82 | 0.4 to 0.8 |  |  | 
Coelenterazine ip | 441 | 47 | 0.54 | 1 |  |  | 
Coelenterazine n | 467 | 0.01 | 0.26 | 5 |  |  | 
